From patent US20250170082A1, “HPDL INHIBITORS AND USES THEREOF” (NEW YORK UNIVERSITY, priority 2022, published 2025)
pIC50: −log10 of the molar value. Entries after “also recorded” stand apart in the source; their conditions may differ.

What was measured:
[1] = tested on: MIAPACA2 cells; test: 3D growth assay (CyQUANT) in MIAPACA2 cells, ibuprofen vs aspirin; format: cell-based; conditions: 100 uM added daily, 3 days
Procedure: This experiment evaluates if COX inhibition is responsible for the decrease of cell growth in 3D. The ability of aspirin, another COX inhibitor, to affect cell growth of HPDL-dependent cell lines in 3D was evaluated. 2,500 cells were seeded into a low-attachment 96-well plate containing DMEM+10% dialysed FBS and 3% Matrigel. […] To measure 3D growth with the CyQUANT Cell Proliferation Assay kit, plates were frozen at −80° C., thawed at room temperature, and equal volumes of 2× CyQUANT reagent+lysis buffer was added to the wells. Wells containing medium and no cells were used as blanks.

[2] = biological target: T1, HPDL (Homo sapiens, UniProt Q96IR7); test: Fluorescence based thermal shift assay (FTS) on purified HPDL; format: binding; conditions: 10 μM compound, 1 μM HPDL
T1 construct: His tag; made in house; host or cells: expiSF9 insect cells (inferred: the only HPDL preparation described)
T1 sequence (Q96IR7 1-371): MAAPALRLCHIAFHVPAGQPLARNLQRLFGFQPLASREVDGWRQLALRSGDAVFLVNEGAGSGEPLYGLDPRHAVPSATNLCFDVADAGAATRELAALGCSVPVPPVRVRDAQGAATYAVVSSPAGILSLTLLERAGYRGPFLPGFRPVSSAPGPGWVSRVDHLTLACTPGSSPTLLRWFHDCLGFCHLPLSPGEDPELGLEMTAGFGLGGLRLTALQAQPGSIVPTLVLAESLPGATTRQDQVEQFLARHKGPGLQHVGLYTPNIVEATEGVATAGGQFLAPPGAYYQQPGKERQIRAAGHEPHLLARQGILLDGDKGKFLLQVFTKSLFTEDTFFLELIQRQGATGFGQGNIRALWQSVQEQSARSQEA
Procedure: This experiment evaluates an FDA approved library of small molecules by thermal shift in order to identify binders of HPDL. Fluorescence based thermal shift assay (FTS) was conducted on Bio-Rad real time PCR detection system. A total of 20 μL/well solution was prepared containing 1 μM HPDL, 2× fluorescent dye (Applied Biosystems, Life Technologies) and small molecules at […] concentration in buffer (50 mM HEPES pH 7.5 and 20 μM FeSO4). The plate was heated at 1% of ramp rate (−1.5° C./min) from 25 to 95° C., and Rox was selected as reporter for detection of fluorescence intensity. The melting temperature was recorded for every compound and compared to the reference HPDL melting temperature.
This experiment evaluates if COX inhibition is responsible for the decrease of cell growth in 3D. The ability of aspirin, another COX inhibitor, to bind HPDL was evaluated using thermal shift assay. Fluorescence based thermal shift assay (FTS) was conducted on Bio-Rad real time PCR detection system. […] The plate was heated at 1% of ramp rate (˜1.5° C./min) from 25 to 95° C., and Rox was selected as reporter for detection of fluorescence intensity. The melting temperature was recorded for every compound and compared to the reference HPDL melting temperature.

[3] = biological target: T2, human His-tagged HPDL (4-hydroxyphenylpyruvate dioxygenase-like), recombinant, from expiSF9 insect cells (Homo sapiens, UniProt Q96IR7); test: Inhibition of HPDL activity: His-tagged HPDL incubated with HPPA at various inhibitor concentrations, 4HMA production followed by GC-MS; format: biochemical
T2 construct: His tag; made in house; host or cells: expiSF9 insect cells (virus infection)
T2 sequence (Q96IR7 1-371): T1 sequence (Q96IR7 1-371)
Text: The four curves in Panel (A) represent dose-response curves for, from left to right, ibuprofen, dopamine, montelukast, and methyldopa, respectively.
A culture of expiSF9 cells (5×10^6 viable cells/mL and ≥90% viability) were infected with high-titer virus (human His-tagged HPDL).

[4] = tested on: C57BL/6 pups; test: Pup survival after daily oral gavage; format: in vivo
[5] = tested on: cells; test: Cellular uptake of 4-HMA and incorporation into CoQ10; format: cell-based
[6] = tested on: MIAPACA2 and PATU8902 xenografts; test: PDAC pancreas orthotopic xenografts in athymic nude mice; format: in vivo
Procedure: Pancreas orthotopic xenografts were established as follows. In brief, 6-week-old female immunocompromised athymic nude mice (CrTac:NCr-Foxnlnu) were orthotopically injected with tumor cells into the pancreas. Mice were anaesthetized with ketamine (120 mg kg−1) and xylazine (10 mg kg−1) before surgery. MIAPACA2 or PATU-8902 ([…]) were suspended in 20 μl of 50% growth factor-reduced Matrigel (BD Science), and injected into the pancreas. Mice were treated with buprenorphine every 12 h after surgery for 48 h. […] Both compounds were dissolved into mice water every day to avoid degradation. Mice were sacrificed when tumor development led to significant deterioration of their condition.

[7] = tested on: MIAPACA2 and PATU-8902 cells; test: 3D growth assay (CyQUANT) in MIAPACA2 and PATU-8902 cells; format: cell-based; conditions: 3 days
Procedure: 2,500 cells were seeded into a low-attachment 96-well plate containing DMEM+10% dialysed FBS and 3% Matrigel. […] To measure 3D growth with the CyQUANT Cell Proliferation Assay kit, plates were frozen at −80° C., thawed at room temperature, and equal volumes of 2× CyQUANT reagent+lysis buffer was added to the wells. As a control, wells containing medium and no cells were used as blanks. CyQUANT measurements were performed as described in the manufacturer's instructions.
2,500 cells were seeded into a low-attachment 96-well plate containing DMEM+10% dialysed FBS and 3% Matrigel. […] To measure 3D growth with the CyQUANT Cell Proliferation Assay kit, plates were frozen at −80° C., thawed at room temperature, and equal volumes of 2×CyQUANT reagent+lysis buffer was added to the wells. Wells containing medium and no cells were used as blanks.

[8] = biological target: T3, His-tagged HPDL (Homo sapiens, UniProt Q96IR7); conditions: for compound amount at 50% activity level (rank among the four dose-response curves): FIG. 4(A) dose-response curves
T3 sequence (Q96IR7 1-371): T1 sequence (Q96IR7 1-371)

[9] = tested on: MIAPACA2 expressing control or HPDL sgRNA; test: 3D growth assay in MIAPACA2 expressing control or HPDL sgRNA, with or without coHPDL; format: cell-based; conditions: ibuprofen 100 uM added daily, 3 days
Procedure: This experiment evaluates if HPDL inhibition in cells is responsible for the decrease of cell growth in 3D. […] 2,500 cells were seeded into a low-attachment 96-well plate containing DMEM+10% dialysed FBS and 3% Matrigel. […] To measure 3D growth with the CyQUANT Cell Proliferation Assay kit, plates were frozen at −80° C., thawed at room temperature, and equal volumes of 2× CyQUANT reagent+lysis buffer was added to the wells. Wells containing medium and no cells were used as blanks.

CC(=O)Oc1ccccc1C(=O)O [aspirin] was tested, and the 3D cell growth [1] was “does not affect cell growth of HPDL-dependent cell lines” and the “HPDL binding by thermal shift” value [2] was “does not act HPDL binder”.
Work on CC(C)(O)c1ccccc1CC[C@@H](SCC1(CC(=O)O)CC1)c1cccc(/C=C/c2ccc3ccc(Cl)cc3n2)c1 [D00005 row 1, montelukast] yielded a pIC50 [3] of under 4.00.
O=C(O)C(O)c1ccc(O)cc1 (stereo not drawn) [4HMA, 4-hydroxymandelate] was tested, and the “rescue of ibuprofen-induced lethality” value ([4]; 4HMA 10 mg/kg with ibuprofen 200 mg/kg daily oral gavage) was “rescues ibuprofen-induced lethality in pups”, the “uptake by cells and incorporation into CoQ10” value [5] was “readily taken up by cells and incorporated into CoQ10” and the “rescue of ibuprofen-induced decrease of xenograft growth” value ([6]; 4HMA 10 mg/kg with ibuprofen 100 mg/kg in drinking water) was “can rescue this decrease”. For the same compound, the “rescue of ibuprofen-induced decrease of 3D cell growth” value ([7]; ibuprofen 100 uM and 4HMA 1 mM added daily) was “rescues ibuprofen-induced decreases cell growth in 3D”.
Work on CC(C)Cc1ccc(C(C)C(=O)O)cc1 (stereo not drawn) [D00005 row 4, ibuprofen] yielded a pIC50 [3] of 4.78.
Work on NCCc1ccc(O)c(O)c1 [D00005 row 2, dopamine] yielded a pIC50 [3] of 4.38.
C[C@](N)(Cc1ccc(O)c(O)c1)C(=O)O [D00005 row 3, methyldopa] gave a pIC50 [3] of under 4.00.
In the case of CC(C)Cc1ccc(C(C)C(=O)O)cc1 (stereo not drawn) [ibuprofen], the “pup development and survival” value ([4]; ibuprofen 200 mg/kg daily oral gavage, started at 3, 5 and 10 days) was “affects the development of pups; also recorded: ibuprofen-induced lethality in pups”, the 3D cell growth [1] was “affects cell growth of HPDL-dependent cell lines in 3D” and the “compound amount at 50% activity level (rank among the four dose-response curves)” value [8] was “least”. The “orthotopic pancreatic tumor growth (tumor weight)” value ([6]; ibuprofen 100 mg/kg in drinking water) was “affects the growth of HPDL-dependent PDAC orthotopic xenografts”, the 3D cell growth ([7]; ibuprofen 100 uM added daily) was “selectively decreases cell growth of HPDL-dependent cell lines in 3D” and the “sensitivity of 3D growth to ibuprofen on HPDL deletion” value [9] was “HPDL deletion reduces sensitivity to ibuprofen treatment in 3D”.
With NCCc1ccc(O)c(O)c1 [dopamine] the “inhibition of HPDL activity” value ([8]; 12 ng/μL HPDL, 10 μM HPPA, 1 h at 37° C., various inhibitor concentrations) was “inhibit the dioxygenase HPDL” and the “compound amount at 50% activity level (rank among the four dose-response curves)” value [8] was “second least”.
